PMC6678097, “Machilin A Inhibits Tumor Growth and Macrophage M2 Polarization Through the Reduction of Lactic Acid” (Cancers, 2019)

Assays:
[1] = biological target: T1, purified recombinant LDHA (Homo sapiens, UniProt P00338); test: In vitro LDH activity assay with purified recombinant LDHA; format: biochemical; details: up to a concentration of 1 mM
T1 construct: made in house
Procedure: A purification of recombinant LDHA was performed as described previously. LDH activity was determined by measuring the decrease of absorbance at 340 nm due to the oxidation of NADH in 20 mM HEPES-K^+, 0.05% bovine serum albumin (BSA), 20 μM NADH, and 2 mM pyruvate (Sigma-Aldrich, St. Louis, MO, USA) at a pH of 7.2 using a spectrofluorometer (Spectramax M2, Molecular Devices, San Jose, CA, USA; excitation 340 nm; emission 460 nm), as described previously. Ten nanograms of recombinant LDHA protein were used in the in vitro LDH activity assay. One microgram of total protein from cell or tissue lysates was used for intracellular or in vivo LDH assays.

[2] = biological target: T2, purified recombinant human LDHA (rhLDHA) (Homo sapiens, UniProt P00338); test: NADH binding assay (LDHA binding to Cibacron Blue 3GA agarose); details: machilin A 10 and 100 μM; NADH positive control
T2 construct: made in house
Procedure: An NADH binding assay was performed as described previously. The NADH binding ability of LDHA was determined by measuring the affinity of LDHA to agarose-immobilized Cibacron Blue 3GA, which resembles NADH. Then, 400 ng of purified recombinant human LDHA (rhLDHA) was incubated with NADH or MA, followed by incubation with 30 µL of Cibacron Blue agarose at 4 °C for 2 h. After a washing step with 20 mM Tris-HCl (pH 8.6), LDHA bound to beads was eluted in PBS using a sodium dodecyl sulfate (SDS) gel running buffer and was then subjected to–SDS-polyacrylamide gel electrophoresis (SDS-PAGE) and western blotting. Standardized amounts of protein were used in each reaction.

LDHA [3] = biological target: LDHA (Homo sapiens, UniProt P00338); test: Isothermal titration calorimetry (ITC) of LDHA and NADH; design: Full-length LDHA (residues 1–331) was obtained from cDNA by polymerase chain reaction (PCR); inferred from pET-28a vector and Ni-NTA purification; made in house; host or cells: E. coli BL21 (DE3); details: 25 °C, read-out: apparent KD of binding to LDHA
Procedure: compounds. The acquisition time was 1.704 sec, relaxation delay was 1.5 sec and 128 transient were collected. Lactate was quantified using Chenomx NMR Suite 7.1 professional with the Chenomx 600 MHz library database (Chenomx Inc., Edmonton, Alberta, Canada, ).
1.4. Isothermal Titration Calorimetry
Isothermal titration calorimetry (ITC) measurements were carried out using MicroCal auto_iTC200 (GE healthcare, Chicago, IL, USA) at 25 °C. The purified LDHA protein was dialyzed in buffer containing 50 mM Tris-HCl (pH 8.0) and 200 mM NaCl at a concentration of 0.1 mM. NADH was solubilized in the same buffer at concentrations of 1 to 2 mM. The NADH was titrated into the LDHA solution onto an ITC200 microcalorimeter cell. The raw data were integrated and normalized using MicroCal Origin 7.0 software (GE healthcare). The determined binding affinity (KA) and enthalpy changes (ΔH) values were used to calculate ΔS from the standard thermodynamic equation.
For generation of bone marrow-derived macrophage (BMDM), bone marrow cells were extracted from C57BL/6 mice by surgery, and treated with M-CSF (10ng/ml) for 7days. BMDM cells were incubated with the indicated concentration of culture media with MA and lactate or not. The cells were washed with phosphate buffered saline (PBS) and fixed in 3.7% formaldehyde in PBS for 1h. […]

LDHA [4] = system: LDHA; design: method as in PMID 30850682; details: through reducing its binding to substrate, pyruvate; cited from earlier work

With `c1ccc2c(c1)OCO2` [1,3-benzodioxole, reference compound] the “effect on LDHA activity” value [1] was “did not affect LDHA activity”.

In the case of `NC(=O)C1=CN(C2OC(COP(=O)(O)OP(=O)(O)OCC3OC(n4cnc5c(N)ncnc54)C(O)C3O)C(O)C2O)C=CC1` (centres unmarked) [NADH, 1,4-dihydronicotinamide adenine dinucleotide, reference compound], the “LDHA binding to Cibacron Blue Agarose beads (NADH mimic)” value [2] is reported as “prohibited LDHA binding” and the Kd (LDHA [3]) is reported as 10 µM.

For `FC(F)(F)c1ccc([Se]c2ccccc2)cc1` [PSTMB, 1-(phenylseleno)-4-(trifluoromethyl)benzene], the “effect on LDHA activity” value (LDHA [4]) is listed as “inhibited LDHA activity”.

In the case of `OCc1ccc2c(c1)OCO2` [piperonyl alcohol, reference compound], the “effect on LDHA activity” value [1] is reported as “did not affect LDHA activity”.
